Test results published in ChEMBL document CHEMBL4339235, “Guitarrins A-E and Aluminumguitarrin A: 5-Azaindoles from the Northwestern Pacific Marine Sponge Guitarra fimbriata” (J Nat Prod, 2019).

Assay: Inhibition of Cobetia marina ALP using pNPP as substrate; call rule not given here

Row | IC50 (read-out: IC50) [µM] | IC50 | Compound
1 | – | Not Active | OCc1nccc2[nH]ccc12
2 | – | Not Active | O=C(O)c1nccc2[nH]ccc12

Second part, the compound before the results:

Row | Compound | IC50 (read-out: IC50) [µM] | IC50
3 | O=C(O)c1cc2[nH]ccc2c(CO)n1 | 2 | –
4 | O=C(O)c1nc(CO)c2cc[nH]c2c1O | 100 | –
5 | O=C(O)CCCc1nccc2[nH]ccc12 | – | Not Active
